{"source": "patent US8691859B2", "about": "(priority 2005, dated 2014)", "key": {"anthrax lethal factor": {"target": "anthrax lethal factor (Bacillus anthracis, UniProt P15917)", "sequence (P15917 34-809 limits assumed)": "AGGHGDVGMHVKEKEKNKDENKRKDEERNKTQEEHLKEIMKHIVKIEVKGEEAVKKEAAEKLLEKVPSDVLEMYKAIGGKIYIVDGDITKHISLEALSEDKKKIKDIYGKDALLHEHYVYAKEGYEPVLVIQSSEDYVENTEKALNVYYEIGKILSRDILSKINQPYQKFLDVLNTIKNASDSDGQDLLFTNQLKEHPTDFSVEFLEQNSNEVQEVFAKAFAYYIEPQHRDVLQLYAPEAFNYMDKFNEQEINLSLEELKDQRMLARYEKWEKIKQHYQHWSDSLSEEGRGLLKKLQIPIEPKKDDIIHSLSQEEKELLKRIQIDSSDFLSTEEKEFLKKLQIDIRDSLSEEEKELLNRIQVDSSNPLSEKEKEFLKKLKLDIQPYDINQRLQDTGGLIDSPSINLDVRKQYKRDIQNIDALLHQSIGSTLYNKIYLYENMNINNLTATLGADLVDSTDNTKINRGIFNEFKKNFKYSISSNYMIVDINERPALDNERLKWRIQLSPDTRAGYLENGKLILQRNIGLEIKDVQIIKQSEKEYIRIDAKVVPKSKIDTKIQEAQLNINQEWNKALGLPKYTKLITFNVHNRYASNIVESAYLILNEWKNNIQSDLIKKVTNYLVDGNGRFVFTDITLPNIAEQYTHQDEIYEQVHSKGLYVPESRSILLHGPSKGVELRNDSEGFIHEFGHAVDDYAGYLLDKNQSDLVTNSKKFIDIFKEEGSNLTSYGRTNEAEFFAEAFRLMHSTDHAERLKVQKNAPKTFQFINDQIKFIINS", "assay_type": "biochemical"}, "[1]": {"tested_on": "B. anthracis GFP sterne spores", "assay": "microbe, parasite or virus in culture", "assay_type": "cell-based", "conditions": "Bacillus anthracis"}, "[2]": {"target": "botulinum neurotoxin serotype A light chain (Clostridium botulinum, UniProt P0DPI0)", "sequence (P0DPI0 2-448 limits assumed)": "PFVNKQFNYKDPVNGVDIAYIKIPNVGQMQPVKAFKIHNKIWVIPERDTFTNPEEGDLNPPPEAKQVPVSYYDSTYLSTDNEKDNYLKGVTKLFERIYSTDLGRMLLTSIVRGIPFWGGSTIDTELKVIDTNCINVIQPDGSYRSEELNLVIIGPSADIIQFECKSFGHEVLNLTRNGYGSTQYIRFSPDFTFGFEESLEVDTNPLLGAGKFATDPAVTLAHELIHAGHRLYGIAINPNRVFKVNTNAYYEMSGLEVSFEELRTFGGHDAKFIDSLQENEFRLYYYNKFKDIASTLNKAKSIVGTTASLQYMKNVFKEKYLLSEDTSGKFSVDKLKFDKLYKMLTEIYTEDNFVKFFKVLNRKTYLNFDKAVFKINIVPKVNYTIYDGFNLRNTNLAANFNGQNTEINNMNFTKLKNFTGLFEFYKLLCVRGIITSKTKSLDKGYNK", "assay_type": "biochemical, Clostridium botulinium"}, "[3]": {"tested_on": "B. anthracis GFP sterne vegetative cells", "assay": "microbe, parasite or virus in culture", "assay_type": "cell-based", "conditions": "Bacillus anthracis, read-out: MIC B. anthracis vegetative cells"}, "B. anthracis Ames": {"tested_on": "B. anthracis Ames", "assay": "microbe, parasite or virus in culture", "assay_type": "cell-based", "conditions": "Bacillus anthracis"}, "E. feacalis": {"tested_on": "E. feacalis", "assay": "organism not typed", "assay_type": "cell-based"}, "Ames spores [4]": {"tested_on": "Ames spores", "assay": "microbe, parasite or virus in culture", "assay_type": "cell-based, B. anthracis", "conditions": "Bacillus anthracis"}, "B. cepacia": {"tested_on": "B. cepacia", "assay": "microbe, parasite or virus in culture", "assay_type": "cell-based", "conditions": "Burkholderia cepacia"}, "K. pneumoniae": {"tested_on": "K. pneumoniae", "assay": "microbe, parasite or virus in culture", "assay_type": "cell-based", "conditions": "Klebsiella pneumoniae"}, "Ames spores [5]": {"tested_on": "Ames spores", "assay": "microbe, parasite or virus in culture", "assay_type": "cell-based, B. anthracis", "conditions": "Bacillus anthracis", "remark": "listed apart in the source"}, "B. megaterium": {"tested_on": "B. megaterium", "assay": "microbe, parasite or virus in culture", "assay_type": "cell-based", "conditions": "Priestia megaterium"}, "Burkholderia mallei": {"tested_on": "Burkholderia mallei", "assay": "microbe, parasite or virus in culture", "assay_type": "cell-based"}, "B. brevis": {"tested_on": "B. brevis", "assay": "microbe, parasite or virus in culture", "assay_type": "cell-based", "conditions": "Brevibacillus brevis"}, "Y. pestis": {"tested_on": "Y. pestis", "assay": "microbe, parasite or virus in culture", "assay_type": "cell-based", "conditions": "Yersinia pestis"}, "P. aeruginosa PAO1": {"tested_on": "P. aeruginosa PAO1", "assay": "microbe, parasite or virus in culture", "assay_type": "cell-based", "conditions": "Pseudomonas aeruginosa"}, "S. aureus": {"tested_on": "S. aureus", "assay": "microbe, parasite or virus in culture", "assay_type": "cell-based", "conditions": "Staphylococcus aureus"}, "Sterne spores": {"tested_on": "Sterne spores", "assay_type": "cell-based, B. anthracis"}, "[6]": {"tested_on": "Methicillin resistant S. aureus", "assay": "microbe, parasite or virus in culture", "assay_type": "cell-based", "conditions": "Staphylococcus aureus"}, "B. pumilus": {"tested_on": "B. pumilus", "assay": "microbe, parasite or virus in culture", "assay_type": "cell-based", "conditions": "Bacillus pumilus"}, "[7]": {"tested_on": "Burkholderia pseudomallei", "assay": "microbe, parasite or virus in culture", "assay_type": "cell-based"}, "B. subtilis": {"tested_on": "B. subtilis", "assay": "microbe, parasite or virus in culture", "assay_type": "cell-based", "conditions": "Bacillus subtilis"}, "B. licheniformis": {"tested_on": "B. licheniformis", "assay": "microbe, parasite or virus in culture", "assay_type": "cell-based", "conditions": "Bacillus licheniformis"}, "E. coli": {"tested_on": "E. coli", "assay": "microbe, parasite or virus in culture", "assay_type": "cell-based", "conditions": "Escherichia coli"}, "[8]": {"tested_on": "Burkholderia thailandensis", "assay": "microbe, parasite or virus in culture", "assay_type": "cell-based"}, "Sterne GFP spores": {"tested_on": "Sterne GFP spores", "assay_type": "cell-based, B. anthracis"}, "[9]": {"conditions": "read-out: MIC B. anthracis spores"}}, "note": "Like-named read-outs stand apart in the source and are kept apart here.", "data": [{"smiles": "N=C(N)c1ccc(Oc2ccc(-c3cc4ccc(C(=N)N)cc4[nH]3)cc2)cc1", "note": "[NSC 240898, 2-[4-(4-carbamimidoylphenoxy)phenyl]-1H-indole-6-carboximidamide]", "values": [{"measurement": "inhibition of the protease activity of anthrax lethal factor", "setting": "anthrax lethal factor", "result": "inhibit"}, {"measurement": "MIC", "setting": "[1]; [9]", "result": 4.42, "unit": "µg/mL"}, {"measurement": "inhibition of botulinum neurotoxin serotype A light chain metalloprotease activity", "setting": "[2]", "result": "inhibit"}, {"measurement": "MIC", "setting": "[3]", "result": 4.42, "unit": "µg/mL"}]}, {"smiles": "N=C(N)c1ccc(/C=C/C=C/c2cc3cc(C(=N)N)ccc3o2)cc1", "note": "[NSC 308572, 2-[(1E,3E)-4-(4-carbamimidoylphenyl)buta-1,3-dienyl]benzofuran-5-carboximidamide]", "values": [{"measurement": "inhibition of the protease activity of anthrax lethal factor", "setting": "anthrax lethal factor", "result": "inhibit"}, {"measurement": "MIC", "setting": "[1]; [9]", "result": 8.06, "unit": "µg/mL"}, {"measurement": "MIC", "setting": "[3]", "result": 16.1, "unit": "µg/mL"}]}, {"smiles": "N=C(N)c1ccc2oc(/C=C/C=C/C=C/c3cc4cc(C(=N)N)ccc4o3)cc2c1", "note": "[NSC 308574, 2-[(1E,3E,5E)-6-(5-carbamimidoylbenzofuran-2-yl)hexa-1,3,5-trienyl]benzofuran-5-carboximidamide]", "values": [{"measurement": "inhibition of the protease activity of anthrax lethal factor", "setting": "anthrax lethal factor", "result": "inhibit"}, {"measurement": "MIC", "setting": "[1]; [9]", "result": 2.35, "unit": "µg/mL"}, {"measurement": "inhibition of botulinum neurotoxin serotype A light chain metalloprotease activity", "setting": "[2]", "result": "inhibit"}, {"measurement": "MIC", "setting": "[3]", "result": 9.38, "unit": "µg/mL"}]}, {"smiles": "C(=C\\c1cc2ccc(C3=NCCN3)cc2[nH]1)/c1cc2ccc(C3=NCCN3)cc2[nH]1", "note": "[NSC 317880, 6-(4,5-dihydro-1H-imidazol-2-yl)-2-[(E)-2-[6-(4,5-dihydro-1H-imidazol-2-yl)-1H-indol-2-yl]ethenyl]-1H-indole]", "values": [{"measurement": "MIC", "setting": "B. anthracis Ames", "result": 0.584, "unit": "µg/mL"}, {"measurement": "MIC", "setting": "E. feacalis", "result": 0.584, "unit": "µg/mL"}, {"measurement": "MIC", "setting": "Ames spores [4]", "result": 0.146, "unit": "µg/mL"}, {"measurement": "inhibition of the protease activity of anthrax lethal factor", "setting": "anthrax lethal factor", "result": "inhibit"}, {"measurement": "MIC", "setting": "B. cepacia", "result": 18.7, "unit": "µg/mL"}, {"measurement": "MIC", "setting": "K. pneumoniae", "result": "> 18.7", "unit": "µg/mL"}, {"measurement": "MIC", "setting": "[1]; [9]", "result": 0.292, "unit": "µg/mL"}, {"measurement": "MBC", "setting": "Ames spores [5]", "result": 0.146, "unit": "µg/mL"}, {"measurement": "MIC", "setting": "B. megaterium", "result": 0.584, "unit": "µg/mL"}, {"measurement": "MIC", "setting": "Burkholderia mallei", "result": 9.34, "unit": "µg/mL"}, {"measurement": "MIC", "setting": "B. brevis", "result": 0.584, "unit": "µg/mL"}, {"measurement": "MIC", "setting": "Y. pestis", "result": 18.7, "unit": "µg/mL"}, {"measurement": "MIC", "setting": "[3]", "result": 1.17, "unit": "µg/mL"}, {"measurement": "MIC", "setting": "P. aeruginosa PAO1", "result": 1.17, "unit": "µg/mL"}, {"measurement": "MIC", "setting": "S. aureus", "result": 1.17, "unit": "µg/mL"}, {"measurement": "effect on spore germination", "setting": "Sterne spores", "result": "results to those of NSC 317881 were obtained"}, {"measurement": "MIC", "setting": "[6]", "result": 2.33, "unit": "µg/mL"}, {"measurement": "MIC", "setting": "B. pumilus", "result": 0.146, "unit": "µg/mL"}, {"measurement": "MIC", "setting": "[7]", "result": 18.7, "unit": "µg/mL"}, {"measurement": "MIC", "setting": "B. subtilis", "result": 0.292, "unit": "µg/mL"}, {"measurement": "MIC", "setting": "B. licheniformis", "result": 2.33, "unit": "µg/mL"}, {"measurement": "MIC", "setting": "E. coli", "result": 0.584, "unit": "µg/mL"}, {"measurement": "MIC", "setting": "[8]", "result": 18.7, "unit": "µg/mL"}]}, {"smiles": "c1cc2cc(-c3ccc(-c4cc5ccc(C6=NCCN6)cc5[nH]4)cc3)[nH]c2cc1C1=NCCN1", "note": "[NSC 317881, 6-(4,5-dihydro-1H-imidazol-2-yl)-2-[4-[6-(4,5-dihydro-1H-imidazol-2-yl)-1H-indol-2-yl]phenyl]-1H-indole]", "values": [{"measurement": "MIC", "setting": "B. anthracis Ames", "result": 0.32, "unit": "µg/mL"}, {"measurement": "MIC", "setting": "E. feacalis", "result": 0.162, "unit": "µg/mL"}, {"measurement": "MIC", "setting": "Ames spores [4]", "result": 0.162, "unit": "µg/mL"}, {"measurement": "inhibition of the protease activity of anthrax lethal factor", "setting": "anthrax lethal factor", "result": "inhibit"}, {"measurement": "MIC", "setting": "B. cepacia", "result": "> 20.7", "unit": "µg/mL"}, {"measurement": "MIC", "setting": "K. pneumoniae", "result": 10.3, "unit": "µg/mL"}, {"measurement": "MIC", "setting": "[1]; 22 h, read-out: MIC (figure legend)", "result": 0.084, "unit": "µg/mL"}, {"measurement": "MIC", "setting": "[1]; [9]", "result": 0.162, "unit": "µg/mL"}, {"measurement": "MBC", "setting": "Ames spores [5]", "result": 0.162, "unit": "µg/mL"}, {"measurement": "MIC", "setting": "B. megaterium", "result": 0.323, "unit": "µg/mL"}, {"measurement": "MIC", "setting": "Burkholderia mallei", "result": 10.3, "unit": "µg/mL"}, {"measurement": "MIC", "setting": "B. brevis", "result": 0.646, "unit": "µg/mL"}, {"measurement": "MIC", "setting": "Y. pestis", "result": 20.7, "unit": "µg/mL"}, {"measurement": "MIC", "setting": "[3]", "result": 0.646, "unit": "µg/mL"}, {"measurement": "MIC", "setting": "P. aeruginosa PAO1", "result": 0.323, "unit": "µg/mL"}, {"measurement": "MIC", "setting": "S. aureus", "result": 0.323, "unit": "µg/mL"}, {"measurement": "effect on spore germination", "setting": "Sterne spores", "result": "does not have an effect on spore germination"}, {"measurement": "time after contact with germination medium by which treated spores were killed by heat", "setting": "Sterne spores", "result": "≤ 15", "unit": "min"}, {"measurement": "reduction in cfu as compared to the DMSO control", "setting": "Sterne GFP spores", "result": "considerable reduction"}, {"measurement": "treatment time after which no viable spores were detected", "setting": "Sterne GFP spores", "result": "~4", "unit": "h"}, {"measurement": "MIC", "setting": "[6]", "result": 0.323, "unit": "µg/mL"}, {"measurement": "MIC", "setting": "B. pumilus", "result": 0.021, "unit": "µg/mL"}, {"measurement": "MIC", "setting": "[7]", "result": "> 20.7", "unit": "µg/mL"}, {"measurement": "MIC", "setting": "B. subtilis", "result": 0.162, "unit": "µg/mL"}, {"measurement": "MIC", "setting": "B. licheniformis", "result": 0.646, "unit": "µg/mL"}, {"measurement": "MIC", "setting": "E. coli", "result": 0.646, "unit": "µg/mL"}, {"measurement": "MIC", "setting": "[8]", "result": 20.7, "unit": "µg/mL"}]}, {"smiles": "N=C(N)c1ccc(/C=C/c2cc3cc(C(=N)N)ccc3[nH]2)cc1", "note": "[NSC 317884, 2-[(E)-2-(4-carbamimidoylphenyl)ethenyl]-1H-indole-5-carboximidamide]", "values": [{"measurement": "inhibition of the protease activity of anthrax lethal factor", "setting": "anthrax lethal factor", "result": "inhibit"}, {"measurement": "MIC", "setting": "[1]; [9]", "result": 15, "unit": "µg/mL"}, {"measurement": "MIC", "setting": "[3]", "result": "> 15", "unit": "µg/mL"}]}, {"smiles": "C(=C\\c1cc2cc(C3=NCCN3)ccc2[nH]1)/c1ccc(C2=NCCN2)cc1", "note": "[NSC 317885, 5-(4,5-dihydro-1H-imidazol-2-yl)-2-[(E)-2-[4-(4,5-dihydro-1H-imidazol-2-yl)phenyl]ethenyl]-1H-indole]", "values": [{"measurement": "inhibition of the protease activity of anthrax lethal factor", "setting": "anthrax lethal factor", "result": "inhibit"}, {"measurement": "MIC", "setting": "[1]; [9]", "result": "> 17.1", "unit": "µg/mL"}, {"measurement": "MIC", "setting": "[3]", "result": "> 17.1", "unit": "µg/mL"}]}]}
